From ChEMBL document CHEMBL1157539, “Thousands of chemical starting points for antimalarial lead identification” (Nature, 2010)

The molecules below were run on Plasmodium falciparum (assay: GSK_TCMDC: Inhibition of Plasmodium falciparum 3D7 in whole erythrocytes, using parasite LDH activity as an index of growth.). Conditions: Plasmodium falciparum, 3D7.
Assay type: functional, organism-based

SMILES | XC50
COCCCn1c(=N)c(C(=O)NCCc2ccc(OC)cc2)cc2c(=O)n3cccc(C)c3nc21 | 1030 nM
Cc1cc(CN2CCC(C(=O)Nc3ccc(-c4nc5ccccc5[nH]4)cc3)CC2)oc1C | 1450 nM
CS(=O)(=O)CCNc1nccc(N2CCc3ncnc(Nc4ccc(OCc5cccc(F)c5)c(Cl)c4)c3C2)n1 | 132 nM
CN(C)Cc1c(O)ccc2oc(Cc3ccccc3)cc12 | 912 nM
Cc1nnc2c(N(C(=O)NCCc3ccccc3)C(=O)NCCc3ccccc3)cc3cc(Cl)ccc3n12 | 954 nM
COc1cc(C=NN=c2cc(C)[nH]c3ccccc23)cc(OC)c1OC | 730 nM
CN(C)C(=O)O[C@@H]1CN[C@H](C#Cc2cc3ncnc(Nc4ccc5c(cnn5Cc5cccc(F)c5)c4)c3s2)C1 | 759 nM
CN1N=C2c3ccccc3CCC2C1c1ccc(C#N)cc1 (stereo not given) | 655 nM
Clc1ccc2c(NN=Cc3ccccc3)ccnc2c1 | 755 nM
Cc1ccc(CCOCCCCCNCC(O)c2cc(Cl)c(N)c(Cl)c2)cc1 (stereo not given) | 945 nM
Fc1ccc2[nH]c(-c3cccc(-c4ccc(CN5CCN(CCN6CCOCC6)CC5)cc4)c3)nc2c1 | 307 nM
CCc1n[nH]c(C(=O)NC2CCN(CC3(c4ccc(OC)cc4)CCCCC3)CC2)c1C | 892 nM
Cc1cc2nc(-c3ccc(OCC(=O)NCc4cccc(C(F)(F)F)c4)cc3)[nH]c2cc1C | 988 nM
Cc1ccc(CNC(=O)c2ccc(CN3CCCN(Cc4ccsc4)CC3)cc2)cc1 | 868 nM
CN(Cc1ccc(C#N)cc1)C1CCN(c2cc(NC(=O)c3ccc(F)cc3)ccn2)CC1 | 1430 nM
CC12CC3CC(C)(C1)CC(Nc1nc(N4CCOCC4)nc4ccccc14)(C3)C2 | 938 nM
CC(=O)Nc1ccc(S(=O)(=O)NC2=NC(=N)N(OCc3ccc(Cl)c(Cl)c3)C(C)(C)N2)cc1 | 33.9 nM
O=C(Nc1ccccc1)N1CCC(CN2CCOC(c3ccccc3)(c3ccccc3)C2)CC1 | 206 nM
O=[N+]([O-])c1ccc(C(O)P(=O)(c2ccccc2)c2ccccc2)cc1 (stereo not given) | 341 nM
CCN1CCN(c2cc(C)c3cc(NC(=O)C=Cc4cccc(OC)c4OC)ccc3n2)CC1 | 697 nM

SMILES | XC50
Cc1cc(C2CCN(CCCCNC(=O)c3ccc(NC(=O)c4ccc(Cl)cc4)cc3)CC2)c(C)cc1OCCN(C)C | 766 nM
CCN1CCN(c2cc(C)c3cc(NC(=O)c4ccc(OC)c(OC)c4)ccc3n2)CC1 | 1030 nM
CN(C)CCCNCc1cn(S(=O)(=O)c2ccccc2Cl)c2ccccc12 | 1070 nM
CCCCCCCn1c(=O)c(C(=O)Nc2c(C)cccc2C)c(O)c2ccccc21 | 910 nM
COc1ccc2cc(C(=O)NC3CCC(CCN4CCc5cc(C#N)ccc5C4)CC3)[nH]c2c1 (stereo not given) | 1010 nM
O=C(NC1CCC(CN2CCC(c3c[nH]c4ccccc34)CC2)CC1)c1cc(-c2ccccc2Cl)n(-c2cccc(Cl)c2)n1 (stereo not given) | 851 nM
CC(Nc1nncc(-c2cccc(F)c2)n1)c1ccc(F)cc1 (stereo not given) | 791 nM
CCCCN(CCCC)C(=N)c1cccc2c1CCCC2 | 1560 nM
Fc1ccc2[nH]c(-c3ccc(-c4cccc(CN5CCC(CCN6CCCCC6)CC5)c4)cc3)nc2c1 | 136 nM
COc1ccc(CNc2nc(NCc3ccccc3)c3cc(OC)c(OC)cc3n2)cc1OC | 540 nM
Clc1ccccc1CNc1noc(-c2sccc2Br)n1 | 787 nM
Nc1nc(N)c2c(Cc3ccccc3)cccc2n1 | 828 nM
CC(C)N1CCN(C(CN2CCN(CCCOc3cccc(-c4ccccc4)c3)CC2)c2ccc(F)cc2)CC1 (stereo not given) | 892 nM
CNC(=O)c1cnc(Nc2ccc(OCC(O)CN(C)C)cc2)nc1Nc1cccc(OC)c1 (stereo not given) | 319 nM
Cc1n[nH]c2ccc(-c3cc(OC[C@@H](N)Cc4ccccc4)cnc3-c3ccc(OCc4cccc(F)c4)cc3)cc12 | 730 nM
Cc1[nH]c2ccccc2c1C1CCN(CC2CCC(NC(=O)/C=C/c3ccc(Cl)c(Cl)c3)CC2)CC1 (stereo not given) | 822 nM
Cc1cc(N2CCC(N(C)C)C2)nc(Nc2ccc(Cl)cc2)n1 (stereo not given) | 517 nM
CC(C)(C)c1cc(Cn2ccnc2)cc(C(C)(C)C)c1O | 1040 nM
COc1ccc(-c2ccnc(-c3cccc(-c4ccccn4)n3)c2)cc1 | 824 nM
Cc1cccc(C(=O)Nc2ccc(N3CCCN(Cc4cccc(O)c4)CC3)cc2)c1 | 1420 nM
